Measurements as given in patent US20080234262A1 (Wyeth, priority 2007, published 2008).

Key:
prostate line LNCap = assay: In vitro cell culture growth assay (MTS), LNCap; assay type: cell-based, human; conditions: LNCap cells, three days after drug treatment;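 further: viable cell density read by absorbance at 490 nm, growth expressed as percent of vehicle-treated cells on the same plate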
PI3K = PI3K (Homo sapiens, UniProt P42336); assay: Fluorescence polarization assay for PI3K; assay type: biochemical; conditions: PI3Kα; read-out: PI3Kα IC50;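 further: PI3K kinase reaction on PIP2 with ATP, 30-60 min, product sensed by GST-GRP with red probe in fluorescence polarization (mP), controls without enzyme and at zero time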
Sequence of PI3K (P42336 whole entry): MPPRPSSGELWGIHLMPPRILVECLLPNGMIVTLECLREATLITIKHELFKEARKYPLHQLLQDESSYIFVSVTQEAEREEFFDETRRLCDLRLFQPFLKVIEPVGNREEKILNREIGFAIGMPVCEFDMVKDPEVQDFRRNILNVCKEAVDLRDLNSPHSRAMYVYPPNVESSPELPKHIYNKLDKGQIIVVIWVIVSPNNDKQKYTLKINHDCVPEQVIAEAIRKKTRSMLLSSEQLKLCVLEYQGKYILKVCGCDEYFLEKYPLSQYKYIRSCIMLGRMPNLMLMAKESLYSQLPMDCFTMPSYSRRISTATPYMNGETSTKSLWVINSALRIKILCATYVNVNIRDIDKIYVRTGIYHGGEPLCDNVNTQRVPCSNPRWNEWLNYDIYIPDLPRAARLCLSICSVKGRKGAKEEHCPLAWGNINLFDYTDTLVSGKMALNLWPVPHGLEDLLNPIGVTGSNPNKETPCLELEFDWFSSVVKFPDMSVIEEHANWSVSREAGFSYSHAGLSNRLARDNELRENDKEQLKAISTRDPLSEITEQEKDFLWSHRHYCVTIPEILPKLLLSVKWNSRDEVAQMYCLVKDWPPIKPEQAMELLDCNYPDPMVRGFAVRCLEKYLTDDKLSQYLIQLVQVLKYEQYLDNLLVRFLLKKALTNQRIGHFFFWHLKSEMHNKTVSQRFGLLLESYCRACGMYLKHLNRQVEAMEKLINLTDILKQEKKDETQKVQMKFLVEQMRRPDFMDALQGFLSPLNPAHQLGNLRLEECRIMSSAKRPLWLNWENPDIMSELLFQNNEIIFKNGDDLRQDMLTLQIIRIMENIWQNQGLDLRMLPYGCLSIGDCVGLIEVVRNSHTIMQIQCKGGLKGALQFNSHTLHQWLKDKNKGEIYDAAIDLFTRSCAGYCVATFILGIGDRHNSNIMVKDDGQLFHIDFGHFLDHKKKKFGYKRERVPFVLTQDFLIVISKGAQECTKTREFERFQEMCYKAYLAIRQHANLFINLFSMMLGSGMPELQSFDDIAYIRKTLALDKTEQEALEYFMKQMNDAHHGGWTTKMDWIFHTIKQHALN
Sequence of PI3K (P27986 whole entry partner): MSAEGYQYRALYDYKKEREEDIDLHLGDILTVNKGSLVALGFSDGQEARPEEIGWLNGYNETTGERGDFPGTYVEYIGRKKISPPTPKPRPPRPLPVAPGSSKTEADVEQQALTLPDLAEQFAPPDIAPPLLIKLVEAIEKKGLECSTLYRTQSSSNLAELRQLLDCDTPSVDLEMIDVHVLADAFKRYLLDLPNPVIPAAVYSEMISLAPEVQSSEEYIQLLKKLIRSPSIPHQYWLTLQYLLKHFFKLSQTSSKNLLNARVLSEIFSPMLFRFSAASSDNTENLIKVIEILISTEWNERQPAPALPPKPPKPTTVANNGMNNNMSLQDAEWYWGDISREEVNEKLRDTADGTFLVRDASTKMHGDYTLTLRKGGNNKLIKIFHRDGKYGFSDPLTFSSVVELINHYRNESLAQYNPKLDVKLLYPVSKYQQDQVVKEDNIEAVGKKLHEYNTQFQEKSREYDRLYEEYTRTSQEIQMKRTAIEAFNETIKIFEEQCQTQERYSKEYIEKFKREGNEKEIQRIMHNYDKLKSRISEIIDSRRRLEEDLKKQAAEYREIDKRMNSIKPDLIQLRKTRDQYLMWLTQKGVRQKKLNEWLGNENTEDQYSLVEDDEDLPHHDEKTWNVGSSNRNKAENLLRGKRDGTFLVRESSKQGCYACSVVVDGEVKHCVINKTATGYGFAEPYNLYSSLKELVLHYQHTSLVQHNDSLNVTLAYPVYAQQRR

breast line MDA468 = assay: In vitro cell culture growth assay (MTS), MDA468; assay type: cell-based, human; conditions: MDA468 cells, three days after drug treatment
Method in brief: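 Three-day drug treatment starting 1 day post-plating; viable cells quantified via MTS metabolism (A490); effect normalised to in-plate vehicle controls as % growth.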

Structure (SMILES) | IC50 (prostate line LNCap; Homo sapiens, LNCaP, 72 h) [nM] | IC50 (PI3K) [nM] | IC50 (breast line MDA468; Homo sapiens, 72 h) [nM] | IC50 (prostate line LNCap) [nM] | IC50 (breast line MDA468) [nM] | IC50 (prostate line LNCap; Homo sapiens, 72 h) [nM]
CNC(=O)Nc1ccc(-c2nc(N3CCOCC3)c3cnn(C4CCN(C)CC4)c3n2)cc1 [Compound 401, 1-methyl-3-{4-[1-(1-methylpiperidin-4-yl)-4-morpholin-4-yl-1H-pyrazolo[3,4-d]pyrimidin-6-yl]phenyl}urea] | 1000 | 211 | 3800 | – | – | –
CN(C)CC=CC(=O)N1CCC(n2ncc3c(N4CCOCC4)nc(-c4ccc5[nH]ccc5c4)nc32)CC1 [Compound 234, 4-{4-[6-(1H-indol-5-yl)-4-morpholin-4-yl-1H-pyrazolo[3,4-d]pyrimidin-1-yl]piperidin-1-yl}-N,N-dimethyl-4-oxobut-2-en-1-amine] | 1000 | 481 | 2000 | – | – | –
CNCC(=O)N1CCC(n2ncc3c(N4CCOCC4)nc(-c4ccc5[nH]ccc5c4)nc32)CC1 [Compound 96] | 1300 | 449 | 2800 | – | – | –
CNC(=O)Nc1ccc(-c2nc(N3CCOCC3)c3cnn(C4CCN(C(=O)c5cccnc5Cl)CC4)c3n2)cc1 [Compound 425, 1-[4-(1-{1-[(2-chloropyridin-3-yl)carbonyl]piperidin-4-yl}-4-morpholin-4-yl-1H-pyrazolo[3,4-d]pyrimidin-6-yl)phenyl]-3-methylurea] | 80 | 100 | 500 | – | – | –
COC(=O)Nc1ccc(-c2nc(N3CCOCC3)c3cnn(C4CCN(Cc5cccnc5OC)CC4)c3n2)cc1 [Compound 452, methyl [4-(1-{1-[(2-methoxypyridin-3-yl)methyl]piperidin-4-yl}-4-morpholin-4-yl-1H-pyrazolo[3,4-d]pyrimidin-6-yl)phenyl]carbamate] | 600 | 1830 | 2200 | – | – | –
NC(=O)CN1CCC(n2ncc3c(N4CCOCC4)nc(-c4ccc5[nH]ccc5c4)nc32)CC1 [Compound 495, 2-{4-[6-(1H-indol-5-yl)-4-morpholin-4-yl-1H-pyrazolo[3,4-d]pyrimidin-1-yl]piperidin-1-yl}acetamide] | 800 | 2660 | 2800 | – | – | –
CNC(=O)Nc1ccc(-c2nc(N3CCOCC3)c3cnn(C4CCN(Cc5cncc(Br)c5)CC4)c3n2)cc1 [Compound 638, 1-[4-(1-{1-[(5-bromopyridin-3-yl)methyl]piperidin-4-yl}-4-morpholin-4-yl-1H-pyrazolo[3,4-d]pyrimidin-6-yl)phenyl]-3-methylurea] | – | 72 | – | 95 | 560 | –
CNC(=O)Nc1ccc(-c2nc(N3CCOCC3)c3cnn(C4CCN(Cc5ccc(OC)nc5)CC4)c3n2)cc1 [Example 330, 1-[4-(1-{1-[(6-methoxypyridin-3-yl)methyl]piperidin-4-yl}-4-morpholin-4-yl-1H-pyrazolo[3,4-d]pyrimidin-6-yl)phenyl]-3-methylurea] | 27 | 33 | 700 | – | – | –
CNC(=O)Nc1cccc(-c2nc(N3CCOCC3)c3cnn(C4CCN(Cc5ccccc5)CC4)c3n2)c1 [Compound 228, N-{3-[1-(1-benzylpiperidin-4-yl)-4-morpholin-4-yl-1H-pyrazolo[3,4-d]pyrimidin-6-yl]phenyl}-N′-methylurea] | 5800 | 1920 | 6800 | – | – | –
O=C(Nc1ccccc1)Nc1ccc(-c2nc(N3CCOCC3)c3cnn(C4CCN(C(=O)c5ccccc5)CC4)c3n2)cc1 [Compound 623, 1-{4-[1-(1-benzoylpiperidin-4-yl)-4-morpholin-4-yl-1H-pyrazolo[3,4-d]pyrimidin-6-yl]phenyl}-3-phenylurea] | < 27 | 16 | 50 | – | – | –
c1cc2cc(-c3nc(N4CCOCC4)c4cnn(C5CCSCC5)c4n3)ccc2[nH]1 [Compound 171] | – | 552 | 2900 | – | – | 730
NNC(=O)Nc1ccc(-c2nc(N3CCOCC3)c3cnn(-c4ccccc4)c3n2)cc1 [Compound 538, N-[4-(4-morpholin-4-yl-1-phenyl-1H-pyrazolo[3,4-d]pyrimidin-6-yl)phenyl]hydrazinecarboxamide] | 5200 | 170 | 8000 | – | – | –
CC(=O)NCc1ccc(-c2nc(N3CCOCC3)c3cnn(-c4ccccc4)c3n2)cc1 [Compound 147] | 5600 | 350 | 22000 | – | – | –
COc1ccc(CN2CCC(n3ncc4c(N5CCOCC5)nc(-c5ccc6[nH]ccc6c5)nc43)CC2)cn1 [Compound 176] | 1000 | 352 | 2600 | – | – | –
COC(=O)N1CCC(n2ncc3c(N4CCOCC4)nc(-c4ccc(O)cc4)nc32)CC1 [Compound 944, methyl 4-[6-(4-hydroxyphenyl)-4-morpholin-4-yl-1H-pyrazolo[3,4-d]pyrimidin-1-yl]piperidine-1-carboxylate] | 900 | 2660 | 2100 | – | – | –
CNC(=O)Nc1ccc(-c2nc(N3CCOCC3)c3cnn(C4CCN(C(=O)OCc5ccccc5)CC4)c3n2)cc1 [Compound 880, benzyl 4-(6-{4-[(methylcarbamoyl)amino]phenyl}-4-morpholin-4-yl-1H-pyrazolo[3,4-d]pyrimidin-1-yl)piperidine-1-carboxylate] | 30 | 20 | 220 | – | – | –
CCCCNC(=O)Nc1ccc(-c2nc(N3CCOCC3)c3cnn(C4CCN(Cc5ccccc5)CC4)c3n2)cc1 [Compound 185] | 1200 | 180 | 3900 | – | – | –
CNC(=O)Nc1ccc(-c2nc(N3CCOCC3)c3cnn(C4CCN(C(=O)c5cccc(Cl)c5)CC4)c3n2)cc1 [Example 358, 1-(4-{1-[1-(3-chlorobenzoyl)piperidin-4-yl]-4-morpholin-4-yl-1H-pyrazolo[3,4-d]pyrimidin-6-yl}phenyl)-3-methylurea] | 27 | 53 | 100 | – | – | –
Oc1cccc(-c2nc(N3CCOCC3)c3cnn(C4CCN(Cc5ccco5)CC4)c3n2)c1 [Compound 15] | 74 | 55 | 600 | – | – | –
CNC(=O)Nc1ccc(-c2nc(N3CCOCC3)c3cnn(C4CCN(Cc5ccc(F)nc5)CC4)c3n2)cc1 [Compound 632, 1-[4-(1-{1-[(6-fluoropyridin-3-yl)methyl]piperidin-4-yl}-4-morpholin-4-yl-1H-pyrazolo[3,4-d]pyrimidin-6-yl)phenyl]-3-methylurea] | – | 108 | – | 35 | 120 | –
CN(C)c1ccc(CC(=O)Nc2ccc(-c3nc(N4CCOCC4)c4cnn(C5CCCCO5)c4n3)cc2)cc1 (stereo not drawn) [Compound 276, 2-[4-(dimethylamino)phenyl]-N-{4-[4-morpholin-4-yl-1-(tetrahydro-2H-pyran-2-yl)-1H-pyrazolo[3,4-d]pyrimidin-6-yl]phenyl}acetamide] | 11000 | 6470 | 60000 | – | – | –
CCOC(=O)N1CCC(n2ncc3c(N4CCOC[C@@H]4C)nc(-c4ccc(NC(=O)Nc5ccncc5)cc4)nc32)CC1 [Compound 898, ethyl 4-(4-[(3S)-3-methylmorpholin-4-yl]-6-{4-[(pyridin-4-ylcarbamoyl)amino]phenyl}-1H-pyrazolo[3,4-d]pyrimidin-1-yl)piperidine-1-carboxylate] | 40 | 18 | 380 | – | – | –
CCCOC(=O)N1CCC(n2ncc3c(N4CCOCC4)nc(-c4ccc(NC(=O)Nc5cccnc5)cc4)nc32)CC1 [Compound 850, propyl 4-(4-morpholin-4-yl-6-{4-[(pyridin-3-ylcarbamoyl)amino]phenyl}-1H-pyrazolo[3,4-d]pyrimidin-1-yl)piperidine-1-carboxylate] | < 27 | 38 | 120 | – | – | –
O=C(Nc1ccc(-c2nc(N3CCOCC3)c3cnn(C4CCN(C(=O)c5cccnc5)CC4)c3n2)cc1)Nc1ccccn1 [Compound 592, 1-(4-{4-morpholin-4-yl-1-[1-(pyridin-3-ylcarbonyl)piperidin-4-yl]-1H-pyrazolo[3,4-d]pyrimidin-6-yl}phenyl)-3-pyridin-2-ylurea] | 95 | 260 | 700 | – | – | –
CS(=O)(=O)Nc1cccc(-c2nc(N3CCOCC3)c3cnn(C4CCN(Cc5ccccc5)CC4)c3n2)c1 [Compound 84] | 12000 | 4200 | 12000 | – | – | –
CNC(=O)Nc1ccc(-c2nc(N3CCOCC3)c3cnn(C4CCN(C(=O)c5ccccc5C)CC4)c3n2)cc1 [Example 356, 1-methyl-3-(4-{1-[1-(2-methylbenzoyl)piperidin-4-yl]-4-morpholin-4-yl-1H-pyrazolo[3,4-d]pyrimidin-6-yl}phenyl)urea] | 27 | 93 | 100 | – | – | –
CCCOC(=O)N1CCC(n2ncc3c(N4CCOCC4)nc(-c4ccc(NC(=O)NC)cc4)nc32)CC1 [Compound 751, propyl 4-(6-{4-[(methylcarbamoyl)amino]phenyl}-4-morpholin-4-yl-1H-pyrazolo[3,4-d]pyrimidin-1-yl)piperidine-1-carboxylate] | 34 | 106 | 110 | – | – | –
CNC(=O)Nc1ccc(-c2nc(N3CCOCC3)c3cnn(C4CCN(C(=O)c5ccc(F)nc5)CC4)c3n2)cc1 [Example 421, 1-[4-(1-{1-[(6-fluoropyridin-3-yl)carbonyl]piperidin-4-yl}-4-morpholin-4-yl-1H-pyrazolo[3,4-d]pyrimidin-6-yl)phenyl]-3-methylurea] | 250 | 100 | 300 | – | – | –
CNC(=O)Nc1ccc(-c2nc(N3CCOCC3)c3cnn(C4CCOCC4)c3n2)cc1 [Example 403, 1-methyl-3-{4-[4-morpholin-4-yl-1-(tetrahydro-2H-pyran-4-yl)-1H-pyrazolo[3,4-d]pyrimidin-6-yl]phenyl}urea] | 103 | 45 | 400 | – | – | –
